According to patent publication US12570638B2, “Fused imidazole derivatives as AHR antagonists” (Sail Biomedicines, Inc., priority 2020, dated 2026):
Converted amounts (≈) assume the structure as drawn. Where two headings read alike, the source gives them in different places.

Tests used:
[1] = Solubility Determination Assay (PBS, LC-MS/MS); assay type: physicochemical; settings: aqueous buffer, kinetic from dmso stock
Experimental: The stock solutions of test compounds and control compound progesterone were prepared in DMSO at the concentrations of 10 mM. 15 μL of stock solution (10 mM) of each sample was placed in order into their proper 96-well rack. 485 μL of PBS pH 1.6 and pH 7.4 were added into each vial of the cap-less Solubility Sample plate. The assay was performed in singlet. One stir stick was added to each vial and then the vial was sealed using a molded PTFE/Silicone plug. […] After completion of the 2 hours, plugs were removed and the stir sticks were removed using a big magnet. The samples from the Solubility Sample plate were transferred into the filter plate. Using the Vacuum Manifold, all the samples were filtered. An aliquot of 5 μL was taken from the filtrate followed by addition of 495 μL of a mixture of H2O and acetonitrile containing internal standard (1:1). A certain proportion of ultrapure water was used to dilute the diluent according to the peak shape. The dilution factor was changed according to the solubility values and the LC-MS signal response.
From the 10 mM DMSO STD plate, 6 μL was transferred into the remaining empty plate, and then 194 μL of DMSO were added to that plate to have a STD concentration of 300 μM. From the 300 μM DMSO STD plate, 5 μL were transferred into the remaining empty plate, and then 495 μL of a mixture of H2O and acetonitrile containing internal standard (1:1) were added to that plate to have a final STD concentration of 3 μM. A certain proportion of ultrapure water was used to dilute the diluent according to the peak shape. The concentrations of the standard samples were changed according to the LC-MS signal response.
The plate was placed into the well plate autosampler. The samples were evaluated by LC-MS/MS analysis.
All calculations were carried out using Microsoft Excel.
The filtrate was analyzed and quantified against a standard of known concentration using LC coupled with mass spectral peak identification and quantitation. Solubility values of the test compound and control compound were calculated as follows: […]
Any value of the compounds that was not within the specified limits was rejected and the experiment was repeated.
“+++” indicates a solubility value equal to or greater than 10 μM, “++” indicates a solubility value between 1 and 10 μM, and “+” indicates a solubility value less than 1 μM.

[2] = Liver Microsome Stability Assay, human; assay type: in vitro ADME; settings: human liver microsomes, with NADPH, 1 μM compound, read-out: Human liver microsome clearance
Experimental: The master solution was prepared according to Table 6.
Two separate experiments were performed as follows.
With Cofactors (NADPH): 25 μL of 10 mM NADPH was added to the incubations. The final concentrations of microsomes and NADPH were 0.5 mg/mL and 1 mM, respectively. The final concentration of microsomes was 0.5 mg/mL. The mixture was pre-warmed at 37° C. for 10 minutes. The reaction was started with the addition of 2.5 μL of 100 μM control compound or test compound solutions. Verapamil was used as positive control in this study. The final concentration of test compound or control compound was 1 μM. The incubation solution was incubated in water batch at 37° C. Aliquots of 25 μL were taken from the reaction solution at 0.5, 5, 15, 30 and 60 minutes. The reaction was stopped by the addition of 5 volumes of cold acetonitrile with IS (200 nM caffeine and 100 nM tolbutamide). Samples were centrifuged at 3, 220 g for 40 minutes. Aliquot of 100 μL of the supernatant was mixed with 100 μL of ultra-pure H2O and then used for LC-MS/MS analysis.
Data Analysis: All calculations were carried out using Microsoft Excel. Peak areas were determined from extracted ion chromatograms. The slope value, k, was determined by linear regression of the natural logarithm of the remaining percentage of the parent drug vs. incubation time curve.
The in vitro half-life (in vitro t1/2) was determined from the slope value: in vitro t1/2=−([…]/k)
Conversion of the in vitro t1/2 (min) into the in vitro intrinsic clearance (in vitro CLint, in μL/min/mg protein) was done using the following equation (mean of duplicate determinations):
The calculations of Scaled-up CLint (mL/min/kg), Predicted CLH (mL/min/kg) and EH were done using the following equation: Scaled-up CLint=(0.693/t1/2)×(1/(microsomal protein concentration(0.5 mg/mL)))×Scaling Factors; Predicted CLH=(QH×Scaled-up CLint×fub)/(QH+Scaled-up CLint×fub); EH=Predicted CLH/QH • where QH is the hepatic blood flow (mL/min/kg) (Table 7), • fub is the fraction of unbound drug in plasma which is assumed to be 1. […]

[3] = PBS pH 1.6, 25° C., read-out: Aq. Solubility at pH = 1.6
[4] = PBS pH 7.4, 25° C., read-out: Aq. Solubility at pH = 7.4

Structure (SMILES)	solubility at 2 h [1, 3] [µM]	solubility at 2 h [1, 4] [µM]	CLint scaled at 1 μM [2] [mL/min/kg]
Cn1nccc1C(=O)Nc1ccc2nc(-c3ccccc3C(F)(F)F)[nH]c2c1 [A, 1-methyl-N-(2-(2-(trifluoromethyl)phenyl)-1H-benzo[d]imidazol-6-yl)-1H-pyrazole-5-carboxamide]	> 10	> 10	< 10
Cn1ncnc1C(=O)Nc1ccc2nc(-c3ccccc3C(F)(F)F)[nH]c2c1 [Compound H, 1-methyl-N-(2-(2-(trifluoromethyl)phenyl)-1H-benzo[d]imidazol-6-yl)-1H-1,2,4-triazole-5-carboxamide]	> 10	1 to 10 (≈ 0.386 to 3.86 µg/mL)	< 10
